Publication PMC7413516, “Antidepressant-like activity and safety profile evaluation of 1H-imidazo[2,1-f]purine-2,4(3H,8H)-dione derivatives as 5-HT1A receptor partial agonists” (PLoS ONE, 2020)
Several values for one entry are separate records, joined by “and”; a condition that tells them apart may be missing. Equal entries are not always repeated. Marks after values point to notes of the source that are not given here.

What was measured:
human serotonin 5-HT1AR = target: T1, human serotonin 5-HT1AR (Homo sapiens, UniProt P08908); set-up: host or cells: CHO-K1; method as in Pytka et al. [14]; conditions: cAMP, CHO-K1 cells; ref Pytka et al. [14]; cited from earlier work
T1 sequence (P08908 1-422): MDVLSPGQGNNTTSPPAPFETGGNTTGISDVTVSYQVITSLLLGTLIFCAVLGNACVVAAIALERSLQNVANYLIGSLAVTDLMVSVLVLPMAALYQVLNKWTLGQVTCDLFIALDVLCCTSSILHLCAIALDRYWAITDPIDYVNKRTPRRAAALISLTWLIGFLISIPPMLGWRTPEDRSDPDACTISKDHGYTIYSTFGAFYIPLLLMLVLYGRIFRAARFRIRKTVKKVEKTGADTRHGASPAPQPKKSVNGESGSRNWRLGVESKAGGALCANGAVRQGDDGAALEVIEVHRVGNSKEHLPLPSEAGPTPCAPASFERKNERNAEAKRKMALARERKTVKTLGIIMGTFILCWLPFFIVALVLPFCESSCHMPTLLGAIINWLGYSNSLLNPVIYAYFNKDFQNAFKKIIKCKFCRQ

[1] = target: T2, human serotonin 5-HT1A receptor (Homo sapiens, UniProt P08908); set-up: host or cells: CHO-K1; method as in Pytka et al. [14]; conditions: pERK1/2, CHO-K1 cells; ref Pytka et al. [14]; cited from earlier work
T2 sequence (P08908 1-422): T1 sequence (P08908 1-422)

human 5-HT1AR = target: T3, human 5-HT1AR (Homo sapiens, UniProt P08908); set-up: TEV protease site; Gal4-VP16 transcription factor; host or cells: U2OS (Tango GPCR-bla U2OS parental line); method as in Pytka et al. [14]; conditions: β-arrestin, U2OS cells; ref Pytka et al. [14]; cited from earlier work
T3 sequence (P08908 1-422): T1 sequence (P08908 1-422)

mice [2] = assay: Forced swim test (FST) in mice; assay type: in vivo, Swiss albino mice; conditions: given alone, 0.3 mg/kg s.c., 45 min before test
From the text: (§1) The investigated compounds AZ-853 (8-(4-(4-(2-fluorophenyl)piperazin-1-yl)butyl)-1,3-dimethyl-1H-imidazo[2,1-f]purine-2,4(3H,8H)-dione and AZ-861 (1,3-dimethyl-8-(4-(4-(3-(trifluoromethyl)phenyl)piperazin-1-yl)butyl)-1H-imidazo[2,1-f]purine-2,4(3H,8H)-dione) were synthesised in the Department of Medicinal Chemistry, Faculty of Pharmacy, Jagiellonian University, and their synthesis was described earlier. AZ-853 and AZ-861 were suspended in 1% aqueous solution of Tween 80, and WAY-100635 (Sigma, Germany) was dissolved in 0.9% saline. In acute experiments, the selected compounds AZ-853 (0.156–2.5 mg/kg) and AZ-861 (0.625–2.5 mg/kg) were injected i.p. once 60 min before tests, whereas WAY-100635 (0.3 mg/kg) was administered subcutaneously (s.c.) 45 min before the test. […] In chronic experiments, AZ-853 and AZ-861 were administered i.p. once a day (between 9:00 AM and 10:00 AM) for 16 consecutive days at the minimum active doses selected from FST experiment, i.e. 0.625 and 1.25 mg/kg, respectively. All compounds were administered to mice at a volume of 10 ml/kg and to rats at a volume of 2 ml/kg. The control groups received 1% aqueous solution of Tween 80.
The experiment was carried out according to the method of Porsolt et al.. Swiss albino mice were individually placed in a glass cylinder (25 cm high; 10 cm in diameter) containing 10 cm of water maintained at 23–25°C, and were left there for 6 min. The total duration of immobility was recorded during the last 4 min of a 6-min. A mouse was regarded as immobile when it remained floating on the water, making only small movements to keep its head above it.
(§2) The Swiss albino mice were used in the experiment. AZ-853 and AZ-861 were injected once daily for 16 consecutive days. On the 1st and 15th day the administration of the compounds, 18-h spontaneous animal activity was registered (see below). FST, as described earlier, was performed on the 14th day just before the next treatment. To ensure that the effects observed in FST are not the result of increased motility of animals, on the 13th day, just before the next administration, the locomotor activity was measured as described earlier, from 2 to 6 min after test start, i.e. in the period identical to the duration of FST. Blood and organ collection was performed on the 17th day at 24 h after the last dose and fasting.

mice [3] = assay: Locomotor activity (Opto M3 activity monitor) in mice; assay type: in vivo, Swiss albino mice
From the text: as §1, with “[…].” for “All compounds were administered to mice at a volume of 10 ml/kg and to rats at a volume of 2 ml/kg.”
Locomotor activity was recorded with an Opto M3 multi-channel activity monitor (MultiDevice Software v.1.3, Columbus Instruments). The Swiss albino mice were individually placed in plastic cages (220 × 120 × 130 mm) for 30 min habituation period, and then the crossings of each channel (ambulation) were counted from […] to 6 min, that is the time equal to the observation period in FST. The cages were cleaned up with 70% ethanol after each mouse.
as §2, with “[…].” for “On the 1st and 15th day the administration of the compounds, 18-h spontaneous animal activity was registered (see below).”

For `COc1ccccc1N1CCN(CC(C(=O)NC(C)(C)C)c2ccccc2)CC1` (stereo not shown) [WAY-100135], the “Emax (%) ± SEM, agonist mode” value (human serotonin 5-HT1AR) is given as 2±0.5^c %, the “Emax (%) ± SEM, agonist mode” value [1] is given as 2±1.0^c % and the “Emax (%) ± SEM, agonist mode” value (human 5-HT1AR) is given as 1±0.5^c %.

For `COc1ccccc1N1CCN(CCN(C(=O)C2CCCCC2)c2ccccn2)CC1` [WAY-100635, reference compound], the “effect on immobility in FST” value (mice [2]) was “had no effect on immobility”, the “effect on spontaneous locomotor activity, acute administration” value (mice [3]; 4 min period identical to FST, AZ-853 0.625, 1.25, 2.5 mg/kg, AZ-861 1.25 mg/kg, WAY-100635 0.3 mg/kg alone or combined) was “did not change the locomotor activity” and the “Number of movements (individual animals)” value (mice [3]; acute, WAY-100635 0.3 mg/kg alone, 3 to 6 min, raw data, 0.3 mg/kg) was 130 and 88 and 93 and 242 and 100 and 107. The “Number of movements (mean)” value (mice [3]; acute, WAY-100635 alone 0.3 mg/kg s.c., 3 to 6 min) was 122.9.
